The source of these data is article PMC7075836 (European Journal of Nuclear Medicine and Molecular Imaging, 2020).

Molecules are shown by their SMILES.

By inhibition is commonly meant how much of the control response was suppressed.

One assay concerns the target T1, α8β1 (Homo sapiens, UniProt P05556+P53708).
T1 construct: incubating a small molecule RGD-mimetic-tritiated radioligand with soluble integrin protein
In words: biochemical. The following applies: read-out: inhibition of binding.

For the next assay, the target named is T2, α5β1 (Homo sapiens, UniProt P05556+P08648).
T2 construct: incubating a small molecule RGD-mimetic-tritiated radioligand with soluble integrin protein
T2 sequence (P08648 42-995 limits assumed): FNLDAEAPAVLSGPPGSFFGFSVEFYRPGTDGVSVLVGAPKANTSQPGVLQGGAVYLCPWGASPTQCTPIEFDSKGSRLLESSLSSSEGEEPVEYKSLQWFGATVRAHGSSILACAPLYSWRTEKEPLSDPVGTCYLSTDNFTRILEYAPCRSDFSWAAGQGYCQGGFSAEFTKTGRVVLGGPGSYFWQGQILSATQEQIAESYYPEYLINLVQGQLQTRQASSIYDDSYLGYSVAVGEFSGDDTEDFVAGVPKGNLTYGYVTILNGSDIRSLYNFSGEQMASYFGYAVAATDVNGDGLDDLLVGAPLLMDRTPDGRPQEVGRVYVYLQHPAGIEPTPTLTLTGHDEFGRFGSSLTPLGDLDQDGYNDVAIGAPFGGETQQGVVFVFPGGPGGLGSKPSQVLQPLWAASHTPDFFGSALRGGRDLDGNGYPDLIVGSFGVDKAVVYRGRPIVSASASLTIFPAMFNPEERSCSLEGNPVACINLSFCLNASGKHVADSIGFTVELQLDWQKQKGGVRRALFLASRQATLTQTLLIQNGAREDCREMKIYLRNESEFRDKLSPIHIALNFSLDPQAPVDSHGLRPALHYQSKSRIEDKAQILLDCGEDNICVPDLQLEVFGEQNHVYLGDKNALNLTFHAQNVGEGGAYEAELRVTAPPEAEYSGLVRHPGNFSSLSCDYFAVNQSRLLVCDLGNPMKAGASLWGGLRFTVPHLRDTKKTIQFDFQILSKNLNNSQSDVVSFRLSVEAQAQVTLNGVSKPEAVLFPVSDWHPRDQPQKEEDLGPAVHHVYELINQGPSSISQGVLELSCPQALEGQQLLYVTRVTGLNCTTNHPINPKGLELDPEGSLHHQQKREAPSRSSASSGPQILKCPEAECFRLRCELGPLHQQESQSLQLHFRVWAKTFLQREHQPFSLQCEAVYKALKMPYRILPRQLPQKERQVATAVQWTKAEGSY
T2 sequence (P05556 21-728 limits assumed): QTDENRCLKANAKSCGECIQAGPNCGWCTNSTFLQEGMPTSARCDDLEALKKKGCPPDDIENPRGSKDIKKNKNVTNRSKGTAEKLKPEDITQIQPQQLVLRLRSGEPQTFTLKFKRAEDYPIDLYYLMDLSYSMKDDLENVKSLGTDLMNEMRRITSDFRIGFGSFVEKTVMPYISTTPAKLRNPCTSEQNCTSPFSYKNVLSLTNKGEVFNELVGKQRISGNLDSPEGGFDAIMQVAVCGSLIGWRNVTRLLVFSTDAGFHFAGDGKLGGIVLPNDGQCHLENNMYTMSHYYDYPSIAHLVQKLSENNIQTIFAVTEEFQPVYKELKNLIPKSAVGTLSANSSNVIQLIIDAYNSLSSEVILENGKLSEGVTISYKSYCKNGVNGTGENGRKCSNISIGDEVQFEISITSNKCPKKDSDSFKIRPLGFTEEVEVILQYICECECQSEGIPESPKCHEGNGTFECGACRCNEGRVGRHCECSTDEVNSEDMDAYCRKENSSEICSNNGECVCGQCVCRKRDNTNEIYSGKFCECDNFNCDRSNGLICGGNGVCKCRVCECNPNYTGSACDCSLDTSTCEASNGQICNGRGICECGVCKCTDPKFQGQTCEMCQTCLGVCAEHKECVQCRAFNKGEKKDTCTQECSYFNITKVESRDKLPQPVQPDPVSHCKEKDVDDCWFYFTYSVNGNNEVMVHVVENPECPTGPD
Nature of the assay: biochemical. The following applies: read-out: inhibition of binding.

T1 sequence (P53708 39-1012 limits assumed): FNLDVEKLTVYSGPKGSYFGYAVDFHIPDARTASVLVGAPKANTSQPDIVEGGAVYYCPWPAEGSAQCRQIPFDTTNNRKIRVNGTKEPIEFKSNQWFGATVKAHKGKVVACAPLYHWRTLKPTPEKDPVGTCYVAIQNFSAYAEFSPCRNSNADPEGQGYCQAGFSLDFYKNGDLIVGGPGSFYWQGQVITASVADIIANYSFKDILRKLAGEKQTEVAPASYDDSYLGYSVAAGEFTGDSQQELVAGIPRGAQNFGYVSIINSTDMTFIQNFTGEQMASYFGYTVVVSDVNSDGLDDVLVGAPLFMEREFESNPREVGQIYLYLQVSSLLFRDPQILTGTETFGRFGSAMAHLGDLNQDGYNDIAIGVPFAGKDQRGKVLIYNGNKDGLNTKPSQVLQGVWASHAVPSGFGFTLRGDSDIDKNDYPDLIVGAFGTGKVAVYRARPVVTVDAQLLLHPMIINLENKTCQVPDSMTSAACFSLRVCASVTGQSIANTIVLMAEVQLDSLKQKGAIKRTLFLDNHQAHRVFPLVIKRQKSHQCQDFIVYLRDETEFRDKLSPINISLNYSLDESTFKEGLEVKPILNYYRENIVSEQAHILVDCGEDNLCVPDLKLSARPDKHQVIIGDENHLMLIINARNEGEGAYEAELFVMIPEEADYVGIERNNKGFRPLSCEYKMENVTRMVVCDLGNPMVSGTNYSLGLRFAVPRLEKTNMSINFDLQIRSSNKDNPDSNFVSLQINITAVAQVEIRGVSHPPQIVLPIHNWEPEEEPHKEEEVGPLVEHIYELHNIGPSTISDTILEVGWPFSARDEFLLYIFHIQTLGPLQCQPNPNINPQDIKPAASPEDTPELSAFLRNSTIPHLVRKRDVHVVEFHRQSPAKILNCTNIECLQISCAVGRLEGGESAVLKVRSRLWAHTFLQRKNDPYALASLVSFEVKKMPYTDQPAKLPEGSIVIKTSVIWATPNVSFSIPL
T1 sequence (P05556 21-728 limits assumed): as the sequence (P05556 21-728 limits assumed) above

`CC(C)C[C@H](NC(=O)[C@H](CC(=O)O)NC(=O)CNC(=O)[C@H](CCCNC(=N)N)NC(=O)[C@H](CC(C)C)NC(=O)[C@H](CC(N)=O)NC(=O)[C@@H]1CCCN1C(=O)[C@@H](NC(=O)[C@H](C)NC(=O)[C@@H](N)CC(N)=O)C(C)C)C(=O)N[C@@H](CCC(N)=O)C(=O)N[C@H](C(=O)N[C@@H](CC(C)C)C(=O)N[C@@H](C)C(=O)N[C@@H](CCC(N)=O)C(=O)N[C@@H](CCCCN)C(=O)N[C@H](C(=O)N[C@@H](C)C(=O)N[C@@H](CCCNC(=N)N)C(=O)N[C@H](C(N)=O)[C@@H](C)O)C(C)C)C(C)C` [A20FMDV2]: the inhibition at 1 µM at α8β1 and on α5β1 was under 50% throughout.
